Experimental data: PubChem BioAssay AID1259346
pIC50: −log10 of the molar value. Active and inactive are the calls of the source.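 How the source made its calls: active means IC50 below 1 nM; inactive means the rest.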

Tested on: HCT116 TERT promoter luciferase reporter, 16 h
Experiment: modulation of TERT promoter-driven luciferase – HCT116 cells, human, dose response (AID 1259346)

Row | Structure (SMILES) | pIC50 | IC50
1 | Cc1nc2cc(-c3ccc(Br)cc3)nn2c(C)c1CCC(=O)O | > 9.00 | 
2 | Cc1nc2cc(-c3ccccc3)nn2c(C)c1CCC(=O)O |  | 7 nM (inactive)
3 | Cc1nc2cc(-c3ccc(C#CCO)cc3)nn2c(C)c1CCC(=O)O |  | 3600 nM (inactive)
4 | COC(=O)CCc1c(C)nc2cc(-c3ccc(OC)cc3)nn2c1C | > 9.00 | 
5 | Cc1nc2cc(-c3cccc(Br)c3)nn2c(C)c1CCC(=O)O |  | 346 nM (inactive)
